One assay relates to A431 tumor cells. As to the kind of experiment: A431 xenograft model. It counts as in vivo, athymic nude mice. The note with it: A431 Xenograft model, 100 MPK. As for the experimental part: SC injection of 5×10^6 A431 tumor cells with Matrigel® on the left flank of 24 female athymic nude mice. Randomization of mice 14 days after tumor cell injection into 3 groups of 8 mice each with a mean tumor volume of 90±1 mm3.
(§1) Formulation: 20% HPC, 2% ethanol solution in PBS for the compound No. 45
• Normal saline for Gefitinib® Dosing route: Oral for the compound No. 45 and Gefitinib® Dose Volume: 10 mL/Kg body weight Dosing schedule: Once daily for 14 consecutive days (Q1Dx14) PK-PD experiment in A431 model: Tumors were allowed to grow to 250 mm^3 size. Compounds were dosed once and PBMCs and tumors were collected at Tmax for pStat3 estimation. Plasma was also collected to estimate drug concentration estimation. Efficacy experiment in A431 model: Dosage: • Group1. Vehicle control • Group2. Compound No. 45—150 MPK • Group3. […] Plasma collected for drug concentration estimation and whole blood was collected to isolate PBMCs to determine pStat3 inhibition by flow cytometry as PD readout. Tumors were snap frozen in liquid nitrogen and stored at −80° C. to estimate pStat3 by flow cytometry as PD readout Determination of Plasma Drug Concentration: […]

The subject of another assay is B16F10 tumor cells. As to the kind of experiment: B16F10 metastasis model. Type of assay: in vivo, C57B16 mice. The following applies: B16F10 model, 5 MPK. How it is done:
IV injection of 0.1×10^6 B16F10 tumor cells in the tail vain of 60 male C57B16 mice. Randomization of mice one day after tumor cell injection into 4 groups of 15 mice. Out of 15, 6 mice were sacrificed on 14th day for counting metastatic foci on lungs. Rest 9 mice were dosed continuously till morbidity/mortality for recording survival.
as §1
Plasma collected for drug concentration estimation and whole blood was collected to isolate PBMCs to determine pStat3 inhibition by flow cytometry as PD readout.

The next assay relates to pStat3. The assay is described as follows: Quantification of pStat3 in PBMCs by flow cytometry. Type of assay: in vivo, mice. The following applies: B16F10 model, 5 MPK. As for the experimental part:
Phosphorylation of Stat3 was stimulated by addition of hIL6 (10 ug/mL) for 30 min at 37° C. Blood was fixed with formaldehyde (final 2% v/v) for 10 min at 37° C.
Buffy coat (PBMCs) was separated by aspirating translucent layer using pipetteman and washed twice with PBS-1×
Pre chilled PBMC's were permeabilized by adding ice cold Methanol, while vortexing gently (final volume 90% MeOH v/v) and incubated for 30 min on ice.
Permeabilized PBMCs were washed with PBS once. PBMCs re-suspended to 2×10^6 cells in 200 μL of incubation buffer for 10 min at room temperature (RT). Primary Ab was added (1:100 dilution) and incubated 45 min at RT. Washed as before (twice) and re-suspended in fluorochrome conjugated secondary Ab (1:500 dilution) and incubated at RT in dark for 30 min. Washed and re-suspended in […] PBS.
Measured pStat3 using FACS caliber machine (BD). Unstained PBMCs was used for cytometry settings. […] Histograms (cell number V/s FL1-H) were plotted. Percentage of cells that are phosphorylated by IL6 stimulation (M2 population), and inhibition of phosphorylation by inhibitor (decrease in M2 population) are calculated on histogram by marking peaks, M1 and M2.
In general terms: In flow cytometry, cells or beads pass a laser one at a time.

For the compound `COc1cc2ncnc(Nc3ccc(F)c(Cl)c3)c2cc1OCCCN1CCOCC1` [Gefitinib, reference compound], in the assay on A431 tumor cells, the “% TGI” value is recorded as 94.25%.

As to `CC(=O)O[C@H]1C(=O)[C@@]2(C)[C@H]([C@H](OC(=O)c3ccccc3)[C@]3(O)C[C@H](OC(=O)[C@H](O)[C@@H](NC(=O)c4ccccc4)c4ccccc4)C(C)=C1C3(C)C)[C@]1(OC(C)=O)CO[C@@H]1C[C@@H]2O` [Taxol, paclitaxel, reference compound], in the assay with B16F10 tumor cells, the “Metastasis Inhibition” value was determined as 32%. In addition, the “PBMCs % pStat3 inhibition” value in the assay on pStat3 turned out to be 25%.
